Assay results from patent publication US11795218B2, “Diagnosis and therapy of cancer involving cancer stem cells” (BioNTech AG, priority 2014, dated 2023).
Where a name gives a salt, the structure may show the parent alone.

Assays:
[1] = test system: human NEC14 xenograft tumors; assay: Advanced NEC14 subcutaneous xenograft tumor model, IMAB027 with cisplatin or carboplatin; format: in vivo, mice; details: advanced s.c. NEC14 xenograft; cisplatin 1 mg/kg i.p. day 6-10; carboplatin 30 mg/kg i.p. day 6, 13, 20; IMAB027 35 mg/kg three times a week from day 6
Method: Subcutaneous human NEC14 xenograft tumors were grown to a median size of ˜100 mm^3 before the beginning of the treatment. Mice were treated with 1 mg/kg cisplatin by i.p. injections daily from day 6 to 10 post engraftment and with three 35 mg/kg IMAB027 injections per week (alternating i.v./i.p./i.p.) starting on day 6 as maintenance therapy. […] The arrow marks the time point of therapy start. (B) Individual tumor size in mice at day 24 post graft (mean with ±standard diviation). (C) Survival curves of treated mice. Group size: n=19. P-values: *, p<0.05; **, p<0.01 and ***, p<0.001.
Instead of cisplatin, mice were treated with 30 mg/kg carboplatin on days 6, 13 and 20 by bolus i.p. injections. […] The arrow marks the time point of therapy start. (B) Individual tumor size in mice at day 24 post graft (mean with ±standard diviation). (C) Survival curves of treated mice. Group size: n=19. P-values: *, p<0.05; **, p<0.01 and ***, p<0.001. […]
For treatment of advanced human NEC14 xenograft tumors the human testicular germ cell tumor cell line NEC14 was cultivated according to the instructions of the supplier in RPMI 1640 medium GlutaMAX™ (Life Technologies) containing 10% FCS (Life Technologies) at 3TC in a humidified incubator with 5% CO2. […] Tumor burden were monitored twice a week. […] Inhibition of tumor growth was analyzed using the Kruskal-Wallis test and the post-hoc Dunn's multiple comparison test.

COV362(Luc) cells = assay: CLDN6 surface expression on COV362(Luc) cells after pretreatment with cytostatic agents (flow cytometry); format: cell-based, human; details: 4 days drug (5 ng/ml paclitaxel, 20 μg/ml carboplatin, 25 ng/ml gemcitabine, 20 ng/ml doxorubicin, 7.5 ng/ml topotecan), then 3 or 10 days without drug
Method: ADCC activity of IMAB027 in combination with chemotherapy was analyzed using COV362(Luc) target cells. Therefore, cells were treated for 4 days with carboplatin, gemcitabine, paclitaxel, doxorubicin or topotecan at indicated concentrations. After treatment, cells were grown for 3 (A-D) and 10 days (E-J) in the absence of cytostatic drugs, respectively. Control cells were cultured without cytostatics. (A, C, E, G, I) ADCC experiments were performed with IMAB027 (black lines) or an isotype control antibody (grey lines) using PBMC from healthy donors at an effector (PBMC) to target cell ratio of ˜40:1. Data points (n=4 replicates) are depicted as mean±SD. (B, D, F, H, J) Expression of CLDN6 was analyzed by flow cytometry using IMAB027.
The cells were washed twice and resuspended in FACS buffer. The binding was analysed by flow cytometry using a BD FACSArray (BD Biosciences) and FlowJo software (Tree Star Inc.). The live/dead dye propidium iodide (Sigma, P4864) was used to exclude dead cells from the analysis.
The human ovarian carcinoma cell line COV362 stably transfected with luciferase as a reporter was used to determine the influence of carboplatin and paclitaxel on IMAB027-mediated ADCC. COV362(Luc) cells (3×10^6 cells per 150 mm cell culture dish) were grown under standard conditions. After 24 h, cells were treated with 5 ng/ml paclitaxel, 20 μg/ml carboplatin, 25 ng/ml gemcitabine, 20 ng/ml doxorubicin or 7.5 ng/ml topotecan and incubated for 4 days. The medium was changed and the treated cells were grown under standard growth conditions for further 3 days for carboplatin and gemcitabine or 10 days for paclitaxel, doxorubicin or topotecan.

[2] = test system: human ES-2(CLDN6) xenograft tumors; assay: Early ES-2(CLDN6) subcutaneous xenograft tumor model, IMAB027 with paclitaxel; format: in vivo, mice; details: s.c. ES-2(CLDN6) xenograft; paclitaxel 15 mg/kg i.p. day 3, 10, 17; IMAB027 35 mg/kg three times a week from day 4; vs control group
Method: Subcutaneous human ES-2 xenograft tumors ectopically expressing human CLDN6 were treated with 15 mg/kg paclitaxel on day 3, 10 and 17 post graft by i.p. injections. Antibody maintenance therapy started on day 4 with three 35 mg/kg IMAB027 injections per week (alternating i.v./i.p./i.p.).
Hsd:Athymic Nude-Foxn1^nu mice were engrafted with human cancer cell lines. […] The control group received antibody buffer (vehicle control).
Specifically, for treatment of human ES-2(CLDN6) xenograft tumors, the human ovarian carcinoma cell line ES-2 stably transfected with human CLDN6 was cultivated in Minimum Essential Media (Life Technologies) containing 1 x non-essential amino acids solution (Life Technologies), 700 μg/ml G418 (Life Technologies) and 10% FCS (Life Technologies) at 3TC in a humidified incubator with 5% CO2. For engraftment, 6 week-old female Hsd:Athymic Nude-Foxn1^nu mice were subcutaneously inoculated with 5×10^6 ES-2(CLDN6) cells in 200 μl PBS into the flank. On day 3 post subcutaneous tumor inoculation, mice were treated with either saline control, antibody or chemotherapeutic drug monotherapy and antibody/cytostatic drug combination therapy groups (n=12 per group). […] Tumor burden and animal health were monitored twice a week. […] Inhibition of tumor growth was analyzed using the Kruskal-Wallis test and the post-hoc Dunn's multiple comparison test.

Compound	tumor growth / anti-tumoral efficacy [1]	protein levels of CLDN6 on the cell surface after pretreatment (COV362(Luc) cells)	tumor growth / anti-tumoral activity [2]
N.N.[Cl][Pt][Cl] [cisplatin, cis-diamminedichloroplatinum(II)]	highly significantly reduce tumor growth	–	–
COc1cccc2c1C(=O)c1c(O)c3c(c(O)c1C2=O)C[C@@](O)(C(=O)CO)C[C@@H]3O[C@H]1C[C@H](N)[C@H](O)[C@H](C)O1 [doxorubicin]	–	increased protein levels of CLDN6 on the cell surface	–
Nc1ccn([C@@H]2O[C@H](CO)[C@@H](O)C2(F)F)c(=O)n1 [gemcitabine, 4-amino-1-(2-deoxy-2,2-difluoro-β-D-erythro-pentofuranosyl)pyrimidin-2 (1H)-one]	–	increased protein levels of CLDN6 on the cell surface	–
CC(=O)O[C@H]1C(=O)[C@@]2(C)[C@H]([C@H](OC(=O)c3ccccc3)[C@]3(O)C[C@H](OC(=O)[C@H](O)[C@@H](NC(=O)c4ccccc4)c4ccccc4)C(C)=C1C3(C)C)[C@]1(OC(C)=O)CO[C@@H]1C[C@@H]2O [paclitaxel, (2α,4α,5β,7β,10β,13α)-4,10-bis-(acetyloxy)-13-{[(2R,3S)-3-(benzoylamino)-2-hydroxy-3-phenylpropanoyl]oxy}-1,7-dihydroxy-9-oxo-5,20-epoxytax-11-en-2-yl benzoate]	–	increased protein levels of CLDN6 on the cell surface	does not show anti-tumoral activity
CC[C@@]1(O)C(=O)OCc2c1cc1n(c2=O)Cc2cc3c(CN(C)C)c(O)ccc3nc2-1 [topotecan, (S)-10-[(dimethylamino)methyl]-4-ethyl-4,9-dihydroxy-1H-pyrano[3′,4′:6,7]indolizino[1,2-b]quinoline-3,14(4H,12H)-dione monohydrochloride]	–	increased protein levels of CLDN6 on the cell surface	–
